# Test results as given in publication PMC5218480 (PLoS ONE, 2017).
# Tested on: MV-4-11 cells
# Assay: Gene expression microarray analysis (Affymetrix PrimeView) and GSEA
# Format: cell-based, human
# Design: RFU PODN (11730768_x_at) / Fold change /veh PODN (11730768_x_at) / RFU LINC00158 (11744669_a_at) / Fold change /veh LINC00158 (11744669_a_at) / RFU DUSP10 (11751237_a_at) / Fold change /veh DUSP10 (11751237_a_at) / RFU ID3 (11757404_x_at) / Fold change /veh ID3 (11757404_x_at) / RFU PLEKHG5 (11737974_s_at) / Fold change /veh PLEKHG5 (11737974_s_at) / RFU LRRC4B (11730491_at) / Fold change /veh LRRC4B (11730491_at) / RFU GIMAP4 (11747438_a_at) / Fold change /veh GIMAP4 (11747438_a_at) / RFU KRT8 (11758183_x_at) / Fold change /veh KRT8 (11758183_x_at) / RFU CNN1 (11734310_a_at) / Fold change /veh CNN1 (11734310_a_at) / RFU VPS37D (11726825_at) / Fold change /veh VPS37D (11726825_at) / RFU C10orf10 (11716522_x_at) / Fold change /veh C10orf10 (11716522_x_at) / RFU KIR2DL2 /// KIR2DL4 /// KIR2DL5A /// KIR2DL5B /// KIR2DS1 /// KIR2DS2 /// KIR2DS3 /// KIR2DS4 /// KIR3DL3 /// KIR3DL3 /// KIR3DS1 (11738374_at) / Fold change /veh KIR2DL2 /// KIR2DL4 /// KIR2DL5A /// KIR2DL5B /// KIR2DS1 /// KIR2DS2 /// KIR2DS3 /// KIR2DS4 /// KIR3DL3 /// KIR3DL3 /// KIR3DS1 (11738374_at) / RFU C1QL1 (11718748_at) / Fold change /veh C1QL1 (11718748_at) / RFU TMPRSS4 (11747572_a_at) / Fold change /veh TMPRSS4 (11747572_a_at) / RFU HAMP (11756126_x_at) / Fold change /veh HAMP (11756126_x_at) / RFU RNFT2 (11725882_a_at) / Fold change /veh RNFT2 (11725882_a_at) / RFU NR4A2 (11747474_a_at) / Fold change /veh NR4A2 (11747474_a_at) / RFU ABCC12 (11746883_a_at) / Fold change /veh ABCC12 (11746883_a_at) / RFU TMEM136 (11760407_x_at) / Fold change /veh TMEM136 (11760407_x_at) / RFU CLDN22 /// WWC2 (11732394_at) / Fold change /veh CLDN22 /// WWC2 (11732394_at) / RFU HLA-DPB1 (11760878_x_at) / Fold change /veh HLA-DPB1 (11760878_x_at) / RFU SPINT1 (11716480_a_at) / Fold change /veh SPINT1 (11716480_a_at) / RFU GAP43 (11754022_s_at) / Fold change /veh GAP43 (11754022_s_at) / RFU A4GNT (11735810_at) / Fold change /veh A4GNT (11735810_at) / RFU PRB3 (11715151_x_at) / Fold change /veh PRB3 (11715151_x_at) / RFU TUBB4B (11761932_at) / Fold change /veh TUBB4B (11761932_at) / RFU CAPN14 (11732068_a_at) / Fold change /veh CAPN14 (11732068_a_at) / RFU TMCC2 (11721928_a_at) / Fold change /veh TMCC2 (11721928_a_at) / RFU IRGQ (11745062_a_at) / Fold change /veh IRGQ (11745062_a_at) / RFU FAM174B (11720279_a_at) / Fold change /veh FAM174B (11720279_a_at) / RFU TMPRSS4 (11748680_a_at) / Fold change /veh TMPRSS4 (11748680_a_at) / RFU FAM212B (11763350_a_at) / Fold change /veh FAM212B (11763350_a_at) / RFU PLEKHG5 (11743358_a_at) / Fold change /veh PLEKHG5 (11743358_a_at) / RFU ZSCAN30 (11745921_a_at) / Fold change /veh ZSCAN30 (11745921_a_at) / RFU CMKLR1 (11741424_a_at) / Fold change /veh CMKLR1 (11741424_a_at) / RFU LOC101060620 /// MAPK8IP1 (11723275_at) / Fold change /veh LOC101060620 /// MAPK8IP1 (11723275_at) / RFU SPTSSB (11747773_x_at) / Fold change /veh SPTSSB (11747773_x_at) / RFU PRSS12 (11739890_at) / Fold change /veh PRSS12 (11739890_at) / RFU BIN1 (11741810_x_at) / Fold change /veh BIN1 (11741810_x_at) / RFU WNT11 (11732464_a_at) / Fold change /veh WNT11 (11732464_a_at) / RFU C10orf10 (11716521_a_at) / Fold change /veh C10orf10 (11716521_a_at) / RFU C5orf56 (11738089_at) / Fold change /veh C5orf56 (11738089_at) / RFU CYB561 (11721691_x_at) / Fold change /veh CYB561 (11721691_x_at) / RFU ANKRD19P (11752326_a_at) / Fold change /veh ANKRD19P (11752326_a_at) / RFU OR2T12 /// OR2T33 /// OR2T8 (11738714_s_at) / Fold change /veh OR2T12 /// OR2T33 /// OR2T8 (11738714_s_at) / RFU VCAN (11748164_a_at) / Fold change /veh VCAN (11748164_a_at) / RFU JSRP1 (11732532_at) / Fold change /veh JSRP1 (11732532_at) / RFU KRTAP10-11 (11738290_x_at) / Fold change /veh KRTAP10-11 (11738290_x_at) / RFU MYO3A (11730013_a_at) / Fold change /veh MYO3A (11730013_a_at) / RFU EBF3 (11725865_a_at) / Fold change /veh EBF3 (11725865_a_at) / RFU CAMK2N1 (11719241_x_at) / Fold change /veh CAMK2N1 (11719241_x_at) / RFU C5orf56 (11738088_a_at) / Fold change /veh C5orf56 (11738088_a_at) / RFU OLFML3 (11715873_a_at) / Fold change /veh OLFML3 (11715873_a_at) / RFU LOC100653217 /// NTM (11731650_a_at) / Fold change /veh LOC100653217 /// NTM (11731650_a_at) / RFU MAPK11 (11762145_a_at) / Fold change /veh MAPK11 (11762145_a_at) / RFU FIZ1 (11724087_x_at) / Fold change /veh FIZ1 (11724087_x_at) / RFU OASL (11726364_x_at) / Fold change /veh OASL (11726364_x_at) / RFU SOX15 (11748057_x_at) / Fold change /veh SOX15 (11748057_x_at) / RFU CD79A (11719716_a_at) / Fold change /veh CD79A (11719716_a_at) / RFU HIST1H1D (11736915_at) / Fold change /veh HIST1H1D (11736915_at) / RFU CASKIN2 (11723855_a_at) / Fold change /veh CASKIN2 (11723855_a_at) / RFU LOC730098 (11760151_x_at) / Fold change /veh LOC730098 (11760151_x_at) / RFU OR4N2 (11742367_at) / Fold change /veh OR4N2 (11742367_at) / RFU PRRT2 (11749266_a_at) / Fold change /veh PRRT2 (11749266_a_at) / RFU SNX32 (11753110_a_at) / Fold change /veh SNX32 (11753110_a_at) / RFU CDHR5 (11726645_a_at) / Fold change /veh CDHR5 (11726645_a_at) / RFU RCAN1 (11760418_a_at) / Fold change /veh RCAN1 (11760418_a_at) / RFU FAM167A (11723789_a_at) / Fold change /veh FAM167A (11723789_a_at) / RFU FAM26E (11764081_at) / Fold change /veh FAM26E (11764081_at) / RFU ISYNA1 (11749810_s_at) / Fold change /veh ISYNA1 (11749810_s_at) / RFU ACY1 (11761880_at) / Fold change /veh ACY1 (11761880_at) / RFU 11764098_at / Fold change /veh 11764098_at / RFU SAMD14 (11745864_x_at) / Fold change /veh SAMD14 (11745864_x_at) / RFU NPB (11741838_a_at) / Fold change /veh NPB (11741838_a_at) / RFU TMPRSS6 (11731388_a_at) / Fold change /veh TMPRSS6 (11731388_a_at) / RFU KRTAP10-2 (11738614_at) / Fold change /veh KRTAP10-2 (11738614_at) / RFU ARHGAP8 /// PRR5-ARHGAP8 (11727945_x_at) / Fold change /veh ARHGAP8 /// PRR5-ARHGAP8 (11727945_x_at) / RFU KRTAP5-7 /// NADSYN1 (11734609_at) / Fold change /veh KRTAP5-7 /// NADSYN1 (11734609_at) / RFU RASL12 (11751679_a_at) / Fold change /veh RASL12 (11751679_a_at) / RFU CDKN2B (11736163_a_at) / Fold change /veh CDKN2B (11736163_a_at) / RFU PRF1 (11729649_at) / Fold change /veh PRF1 (11729649_at) / RFU, ZNF638 /// ZNF638-IT1 / Fold change vs veh, ZNF638 /// ZNF638-IT1 / RFU, PANK3 / Fold change vs veh, PANK3 / RFU, SH3YL1 / Fold change vs veh, SH3YL1 / RFU, ZEB2 / Fold change vs veh, ZEB2 / RFU, NRIP1 / Fold change vs veh, NRIP1 / RFU, PTTG1IP / Fold change vs veh, PTTG1IP / RFU, CAPN2 / Fold change vs veh, CAPN2 / RFU, MED14 / Fold change vs veh, MED14 / RFU, SNORA58 / Fold change vs veh, SNORA58 / RFU, C1orf63 / Fold change vs veh, C1orf63 / RFU, LRRFIP1 / Fold change vs veh, LRRFIP1 / RFU, NDUFAF7 / Fold change vs veh, NDUFAF7 / RFU, SLC12A2 / Fold change vs veh, SLC12A2 / RFU, IBTK / Fold change vs veh, IBTK / RFU, ESF1 / Fold change vs veh, ESF1 / Fold change vs veh, TMEM50B / RFU, TAOK1 / Fold change vs veh, TAOK1 / RFU, ACBD3 / Fold change vs veh, ACBD3 / RFU, TMA16 / Fold change vs veh, TMA16 / RFU, RWDD3 / Fold change vs veh, RWDD3 / RFU, BCAT1 / Fold change vs veh, BCAT1 / RFU, EDEM3 / Fold change vs veh, EDEM3 / RFU, TMEM33 / Fold change vs veh, TMEM33 / RFU, WDR75 / Fold change vs veh, WDR75 / RFU, AHCTF1 / Fold change vs veh, AHCTF1 / RFU, TFRC / Fold change vs veh, TFRC / RFU, ZDHHC17 / Fold change vs veh, ZDHHC17 / RFU, NOM1 / Fold change vs veh, NOM1 / RFU, ARL8B / Fold change vs veh, ARL8B / RFU, ZBTB11 / Fold change vs veh, ZBTB11 / RFU, TAMM41 / Fold change vs veh, TAMM41 / RFU, KIAA1704 /// LOC100996395 / Fold change vs veh, KIAA1704 /// LOC100996395 / RFU, ING1 / Fold change vs veh, ING1 / RFU, TRMT61B / Fold change vs veh, TRMT61B / RFU, FUBP3 / Fold change vs veh, FUBP3 / RFU, TP53 / Fold change vs veh, TP53 / RFU, TNKS2 / Fold change vs veh, TNKS2 / RFU, ZFP14 / Fold change vs veh, ZFP14 / RFU, ACTR2 / Fold change vs veh, ACTR2 / RFU, PPP3R1 / Fold change vs veh, PPP3R1 / RFU, PIK3R1 / Fold change vs veh, PIK3R1 / RFU, HNRNPA1 / Fold change vs veh, HNRNPA1 / RFU, RNF170 / Fold change vs veh, RNF170 / RFU, ZNF28 / Fold change vs veh, ZNF28 / RFU, RNGTT / Fold change vs veh, RNGTT / RFU, OGT / Fold change vs veh, OGT / RFU, BRD1 / Fold change vs veh, BRD1 / RFU, MARS / Fold change vs veh, MARS / RFU, ZNF655 / Fold change vs veh, ZNF655 / RFU, FAHD1 / Fold change vs veh, FAHD1 / RFU, BDP1 / Fold change vs veh, BDP1 / RFU, LRRCC1 / Fold change vs veh, LRRCC1 / RFU, ARID1A / Fold change vs veh, ARID1A / RFU, ZNF146 / Fold change vs veh, ZNF146 / RFU, ZNF330 / Fold change vs veh, ZNF330 / RFU, GPN3 / Fold change vs veh, GPN3 / RFU, C9orf123 / Fold change vs veh, C9orf123 / RFU, N4BP2L2 / Fold change vs veh, N4BP2L2 / RFU, ARFIP1 / Fold change vs veh, ARFIP1 / RFU, FAM179B / Fold change vs veh, FAM179B / RFU, BCL10 / Fold change vs veh, BCL10 / RFU, UHRF1BP1L / Fold change vs veh, UHRF1BP1L / RFU, BET1 / Fold change vs veh, BET1 / RFU, CNOT2 / Fold change vs veh, CNOT2 / RFU, ZNF268 / Fold change vs veh, ZNF268 / Fold change vs veh, ZNF507 / RFU, DGCR2 / Fold change vs veh, DGCR2 / RFU, WDSUB1 / Fold change vs veh, WDSUB1 / Fold change vs veh, HSP90B1 /// MIR3652 / RFU, ADSS / Fold change vs veh, ADSS / RFU, GK / Fold change vs veh, GK / RFU, ZNF148 / Fold change vs veh, ZNF148 / RFU, TAF9 / Fold change vs veh, TAF9 / RFU, SLC1A5 / Fold change vs veh, SLC1A5 / RFU, SLMO2 / Fold change vs veh, SLMO2 / RFU, ABCC4 / Fold change vs veh, ABCC4 / RFU, LOC101060439 /// RAP1B / Fold change vs veh, LOC101060439 /// RAP1B / RFU, RFX7 / Fold change vs veh, RFX7 / RFU, GTPBP10 / Fold change vs veh, GTPBP10 / RFU, CNEP1R1 / Fold change vs veh, CNEP1R1 / RFU, BIVM-ERCC5 /// ERCC5 / Fold change vs veh, BIVM-ERCC5 /// ERCC5 / RFU, ILF3 / Fold change vs veh, ILF3 / RFU 11762660_at / Fold change /veh 11762660_at / RFU VCAN (11757783_s_at) / Fold change /veh VCAN (11757783_s_at) / RFU DDX43 (11728927_at) / Fold change /veh DDX43 (11728927_at) / RFU KRT8 (11758188_x_at) / Fold change /veh KRT8 (11758188_x_at) / RFU NKD1 (11759106_at) / Fold change /veh NKD1 (11759106_at) / RFU SRD5A1 (11742802_a_at) / Fold change /veh SRD5A1 (11742802_a_at) / RFU TPSAB1 /// TPSB2 (11721975_s_at) / Fold change /veh TPSAB1 /// TPSB2 (11721975_s_at) / RFU GSTM3 (11746129_a_at) / Fold change /veh GSTM3 (11746129_a_at) / RFU IL23R (11737362_x_at) / Fold change /veh IL23R (11737362_x_at) / RFU TMEM51 (11727254_a_at) / Fold change /veh TMEM51 (11727254_a_at) / RFU PIWIL2 (11732686_x_at) / Fold change /veh PIWIL2 (11732686_x_at) / RFU ORM1 (11744905_x_at) / Fold change /veh ORM1 (11744905_x_at) / RFU CCDC152 (11743942_at) / Fold change /veh CCDC152 (11743942_at) / RFU ECM1 (11717891_a_at) / Fold change /veh ECM1 (11717891_a_at) / RFU IL23R (11748794_a_at) / Fold change /veh IL23R (11748794_a_at) / RFU TNFAIP8L3 (11732012_x_at) / Fold change /veh TNFAIP8L3 (11732012_x_at) / RFU MBOAT4 (11741988_at) / Fold change /veh MBOAT4 (11741988_at) / RFU 11764193_at / Fold change /veh 11764193_at / RFU TMEM53 (11763286_at) / Fold change /veh TMEM53 (11763286_at) / RFU MAGEB2 (11727129_at) / Fold change /veh MAGEB2 (11727129_at) / RFU TMEM200A (11744735_a_at) / Fold change /veh TMEM200A (11744735_a_at) / RFU CCDC152 (11751479_a_at) / Fold change /veh CCDC152 (11751479_a_at) / RFU FAM211A (11726209_a_at) / Fold change /veh FAM211A (11726209_a_at) / RFU RGS16 (11746705_a_at) / Fold change /veh RGS16 (11746705_a_at) / RFU VCAN (11755009_s_at) / Fold change /veh VCAN (11755009_s_at) / RFU RHOB (11743442_s_at) / Fold change /veh RHOB (11743442_s_at) / RFU RGS16 (11720943_a_at) / Fold change /veh RGS16 (11720943_a_at) / RFU RGS16 (11720944_at) / Fold change /veh RGS16 (11720944_at) / RFU, VPS4B / Fold change vs veh, VPS4B / RFU, CREB1 / Fold change vs veh, CREB1 / RFU, DNAJC13 / Fold change vs veh, DNAJC13 / RFU, GNAQ / Fold change vs veh, GNAQ / RFU, CDK5R1 / Fold change vs veh, CDK5R1 / RFU, ZRANB3 / Fold change vs veh, ZRANB3 / RFU, CUL4A / Fold change vs veh, CUL4A / RFU, CCNY / Fold change vs veh, CCNY / RFU, UFL1 / Fold change vs veh, UFL1 / RFU, COG3 / Fold change vs veh, COG3 / RFU, DIAPH2 / Fold change vs veh, DIAPH2 / RFU, SKA2 / Fold change vs veh, SKA2 / RFU, AFF3 / Fold change vs veh, AFF3 / RFU, LMF1 / Fold change vs veh, LMF1 / RFU, IPO11 / Fold change vs veh, IPO11 / RFU, DFFB / Fold change vs veh, DFFB / RFU, FOXP1 / Fold change vs veh, FOXP1 / RFU, CARD8 / Fold change vs veh, CARD8 / RFU, STRN3 / Fold change vs veh, STRN3 / RFU, ADK / Fold change vs veh, ADK / RFU, RASSF2 / Fold change vs veh, RASSF2 / RFU, WIPF1 / Fold change vs veh, WIPF1 / RFU, LARP1B / Fold change vs veh, LARP1B / RFU, RASA1 / Fold change vs veh, RASA1 / RFU, RB1 / Fold change vs veh, RB1 / RFU, PPFIA1 / Fold change vs veh, PPFIA1 / RFU, MAT2A / Fold change vs veh, MAT2A / RFU, CCT5 / Fold change vs veh, CCT5 / RFU, WDR92 / Fold change vs veh, WDR92 / RFU, CUX1 / Fold change vs veh, CUX1 / RFU, TTC7A / Fold change vs veh, TTC7A / RFU, TMEM135 / Fold change vs veh, TMEM135 / RFU, DEPTOR / Fold change vs veh, DEPTOR / RFU, CPM / Fold change vs veh, CPM / RFU, DNAJB6 / Fold change vs veh, DNAJB6 / RFU, CACNA2D3 / Fold change vs veh, CACNA2D3 / RFU, DTX4 / Fold change vs veh, DTX4 / RFU, TFCP2 / Fold change vs veh, TFCP2 / RFU, GMCL1 /// GMCL1P1 / Fold change vs veh, GMCL1 /// GMCL1P1 / RFU, AEBP2 / Fold change vs veh, AEBP2 / RFU, SNHG1 /// SNORD22 /// SNORD25 /// SNORD26 /// SNORD27 /// SNORD28 /// SNORD29 /// SNORD31 / Fold change vs veh, SNHG1 /// SNORD22 /// SNORD25 /// SNORD26 /// SNORD27 /// SNORD28 /// SNORD29 /// SNORD31 / Fold change (Aza/veh), C12orf56 (ProbeSet 11735607_a_at) / Fold change (ACY-1035/veh), C12orf56 (ProbeSet 11735607_a_at) / Fold change (Aza/veh), FGFR1OP (ProbeSet 11751329_s_at) / Fold change (ACY-1035/veh), FGFR1OP (ProbeSet 11751329_s_at) / Fold change (Aza/veh), VPS36 (ProbeSet 11739960_a_at) / Fold change (ACY-1035/veh), VPS36 (ProbeSet 11739960_a_at) / RFU SYPL1 (11715823_x_at) / Fold change /veh SYPL1 (11715823_x_at) / RFU IGFBP7 (11715501_s_at) / Fold change /veh IGFBP7 (11715501_s_at) / RFU REEP3 (11722064_at) / Fold change /veh REEP3 (11722064_at) / RFU IGLL1 (11728026_x_at) / Fold change /veh IGLL1 (11728026_x_at): dose or concentration left out as unconfirmed
# Details: ProbeSet 11716891_at; LIST B
structure (smiles),measurement,value
Nc1ccc(-c2cccs2)cc1NC(=O)c1ccc2c(c1)cc(C1CC1)n2CCN1CCOCC1 [ACY-1035],"Fold change vs veh, C9orf123",1.03
